Experimental data published in patent US11458123B2 (Arvinas, Inc., priority 2016, dated 2022).

Each molecule was assayed on tau protein (assay: Tau protein in vitro degradation assay (Western blot, Tau-13 antibody)). Conditions: SK-N-SH cells; 72 hours of incubation; tested at 300 nM, 100 nM, 33 nM and 11 nM; Western blot, Tau-13 antibody.
Format: cell-based, human
Description: Tau Protein In Vitro Degradation Assay
To determine effect of PROTACs on tau protein degradation SK-N-SH cells were seeded in a 24-well tissue culture-treated plate for at least 18-hours prior to compound addition. Tau PROTACs were evaluated for tau degradation by lysing the cells in lysis buffer with protease inhibitors following a 72-hour incubation with tau PROTACs at 1000 nM, 300 nM and 100 nM for Table 1 and 300 nM, 100 nM, 33 nM and 11 nM for Table 2. Cell lysates were run on standard SDS-PAGE gels, and tau levels were detected by Western blotting using Tau-13 antibody from Abcam (Cambridge, UK) that binds to all forms of human tau.

SMILES | Degradation activity* (highest amount of degradation observed at any dosage; tau protein remaining) | Degradation activity (tau protein remaining; highest amount of degradation observed at any dosage)
Cn1c2ccncc2c2ccc(-c3ccc(O[C@H]4C[C@H](OCCCCCCOC(C5CN(c6ccc7c(c6)C(=O)N(C6CCC(=O)NC6=O)C7=O)C5)C(F)(F)F)C4)nc3)cc21 (stereo partly shown) [Compound 154, 2-(2,6-dioxopiperidin-3-yl)-5-(3-(2,2,2-trifluoro-1-((6-((1r,3r)-3-((5-(5-methyl-5H-pyrido[4,3-b]indol-7-yl)pyridin-2-yl)oxy)cyclobutoxy)hexyl)oxy)ethyl)azetidin-1-yl)isoindoline-1,3-dione] | C (>80% tau protein remaining after 72 hours of incubation with the test compound) | –
Cn1c2ccncc2c2ccc(-c3cnc(O[C@H]4C[C@H](OCCCOCCCN5CC(Oc6ccc7c(c6)C(=O)N(C6CCC(=O)NC6=O)C7=O)C5)C4)c(C(F)(F)F)c3)cc21 (stereo partly shown) [Compound 105, 2-(2,6-dioxopiperidin-3-yl)-5-((1-(3-(3-((1r,3r)-3-((5-(5-methyl-5H-pyrido[4,3-b]indol-7-yl)-3-(trifluoromethyl)pyridin-2-yl)oxy)cyclobutoxy)propoxy)propyl)azetidin-3-yl)oxy)isoindoline-1,3-dione] | A (≤50% tau protein remaining after 72 hours of incubation with the test compound) | –
Cn1c2ccncc2c2ccc(-c3ccc(O[C@H]4C[C@H](OCCCCCOCCC5CN(c6ccc7c(c6)C(=O)N(C6CCC(=O)NC6=O)C7=O)C5)C4)nc3)cc21 (stereo partly shown) [Compound 181, 2-(2,6-dioxopiperidin-3-yl)-5-(3-(2-((5-((1r,3r)-3-((5-(5-methyl-5H-pyrido[4,3-b]indol-7-yl)pyridin-2-yl)oxy)cyclobutoxy)pentyl)oxy)ethyl)azetidin-1-yl)isoindoline-1,3-dione] | – | B (≤80% and >50% tau protein remaining after 72 hours of incubation with the test compound)
O=C1CCC(N2C(=O)c3ccc(OCCCc4ccc(N5CCN(CCCc6ccc(-c7ccc8c(c7)[nH]c7ccncc78)cn6)CC5)nc4)cc3C2=O)C(=O)N1 (stereo not shown) [Compound 55, 5-(3-(6-(4-(3-(5-(5H-pyrido[4,3-b]indol-7-yl)pyridin-2-yl)propyl)piperazin-1-yl)pyridin-3-yl)propoxy)-2-(2,6-dioxopiperidin-3-yl)isoindoline-1,3-dione] | C (>80% tau protein remaining after 72 hours of incubation with the test compound) | –
Cc1cc(-c2ccc3c4cnccc4n(C)c3c2)cnc1OCCOCCOCCOCCOCCOc1ccc2c(c1)C(=O)N(C1CCC(=O)NC1=O)C2=O (stereo not shown) [Compound 140, 2-(2,6-dioxopiperidin-3-yl)-5-((14-((3-methyl-5-(5-methyl-5H-pyrido[4,3-b]indol-7-yl)pyridin-2-yl)oxy)-3,6,9,12-tetraoxatetradecyl)oxy)isoindoline-1,3-dione] | A (≤50% tau protein remaining after 72 hours of incubation with the test compound) | –
O=C1CCC(N2C(=O)c3ccc(OCCCCCN4CCN(CCCc5ccc(-c6ccc7c8cnccc8n(CC(F)(F)F)c7c6)cn5)CC4)cc3C2=O)C(=O)N1 (stereo not shown) [Compound 61, 2-(2,6-dioxopiperidin-3-yl)-5-((5-(4-(3-(5-(5-(2,2,2-trifluoroethyl)-5H-pyrido[4,3-b]indol-7-yl)pyridin-2-yl)propyl)piperazin-1-yl)pentyl)oxy)isoindoline-1,3-dione] | C (>80% tau protein remaining after 72 hours of incubation with the test compound) | –
Cn1c2ccncc2c2ccc(-c3ccc(OCCCCCOCCCCCCC4CN(c5ccc6c(c5)C(=O)N(C5CCC(=O)NC5=O)C6=O)C4)nc3)cc21 (stereo not shown) [Compound 133, 2-(2,6-dioxopiperidin-3-yl)-5-(3-(6-((5-((5-(5-methyl-5H-pyrido[4,3-b]indol-7-yl)pyridin-2-yl)oxy)pentyl)oxy)hexyl)azetidin-1-yl)isoindoline-1,3-dione] | A (≤50% tau protein remaining after 72 hours of incubation with the test compound) | –
Cn1c2ccncc2c2ccc(-c3ccc(O[C@H]4C[C@H](N(C)C5CC6(C5)CN(C(=O)CCCCOc5ccc7c(c5)C(=O)N(C5CCC(=O)NC5=O)C7=O)C6)C4)nc3)cc21 (stereo partly shown) [Compound 137, 2-(2,6-dioxopiperidin-3-yl)-5-((5-(6-(methyl((1r,3r)-3-((5-(5-methyl-5H-pyrido[4,3-b]indol-7-yl)pyridin-2-yl)oxy)cyclobutyl)amino)-2-azaspiro[3.3]heptan-2-yl)-5-oxopentyl)oxy)isoindoline-1,3-dione] | C (>80% tau protein remaining after 72 hours of incubation with the test compound) | –
Cn1c2ccncc2c2ccc(-c3ccc(O[C@H]4C[C@H](OCCCCCCN5CCN(c6ccc7c(c6)C(=O)N(C6CCC(=O)NC6=O)C7=O)CC5)C4)nc3)cc21 (stereo partly shown) [Compound 78, 2-(2,6-dioxopiperidin-3-yl)-5-(4-(6-((1r,3r)-3-((5-(5-methyl-5H-pyrido[4,3-b]indol-7-yl)pyridin-2-yl)oxy)cyclobutoxy)hexyl)piperazin-1-yl)isoindoline-1,3-dione] | C (>80% tau protein remaining after 72 hours of incubation with the test compound) | –
O=C1CCC(N2C(=O)c3ccc(N4CCN(CCCO[C@H]5C[C@@H](Oc6ccc(-c7ccc8c(c7)[nH]c7ccncc78)cn6)C5)CC4)cc3C2=O)C(=O)N1 (stereo partly shown) [Compound 53, 5-(4-(3-((1s,3s)-3-((5-(5H-pyrido[4,3-b]indol-7-yl)pyridin-2-yl)oxy)cyclobutoxy)propyl)piperazin-1-yl)-2-(2,6-dioxopiperidin-3-yl)isoindoline-1,3-dione] | C (>80% tau protein remaining after 72 hours of incubation with the test compound) | –
Cn1c2ccncc2c2ccc(-c3ccc(O[C@H]4C[C@H](Oc5ccc(CCCOC6CN(c7ccc8c(c7)C(=O)N(C7CCC(=O)NC7=O)C8=O)C6)nc5)C4)nc3)cc21 (stereo partly shown) [Compound 156, 2-(2,6-dioxopiperidin-3-yl)-5-(3-(3-(5-((1r,3r)-3-((5-(5-methyl-5H-pyrido[4,3-b]indol-7-yl)pyridin-2-yl)oxy)cyclobutoxy)pyridin-2-yl)propoxy)azetidin-1-yl)isoindoline-1,3-dione] | C (>80% tau protein remaining after 72 hours of incubation with the test compound) | –

Same assay, conditions: SK-N-SH cells; 72 hours of incubation; tested at 1000 nM, 300 nM and 100 nM

SMILES | Activity* (highest amount of degradation observed at any dosage, as tau protein remaining)
Cc1ncsc1-c1ccc(CNC(=O)[C@@H]2C[C@@H](O)CN2C(=O)[C@@H](NC(=O)COCCCOCCCOc2ccc3nc(-c4ccc(N(C)C)cc4)ccc3c2)C(C)(C)C)cc1 [Compound 35, (2S,4R)-1-((S)-2-(2-(3-(3-(2-(4-(dimethylamino)phenyl)quinolin-6-yloxy)propoxy)propoxy)acetamido)-3,3-dimethylbutanoyl)-4-hydroxy-N-(4-(4-methylthiazol-5-yl)benzyl)pyrrolidine-2-carboxamide] | C (>80% tau protein remaining after 72 hours of incubation with the test compound)
Cc1ncsc1-c1ccc([C@H](C)NC(=O)[C@@H]2C[C@@H](O)CN2C(=O)[C@@H](NC(=O)COCCOCCOCCOCCN2CCN(c3ccn4c(n3)nc3ccccc34)CC2)C(C)(C)C)cc1 [Compound 16, (2S,4R)-1-((S)-17-(4-(benzo[4,5]imidazo[1,2-a]pyrimidin-2-yl)piperazin-1-yl)-2-(tert-butyl)-4-oxo-6,9,12,15-tetraoxa-3-azaheptadecanoyl)-4-hydroxy-N—((S)-1-(4-(4-methylthiazol-5-yl)phenyl)ethyl)pyrrolidine-2-carboxamide] | C (>80% tau protein remaining after 72 hours of incubation with the test compound)
Cc1ncsc1-c1ccc([C@H](C)NC(=O)[C@@H]2C[C@@H](O)CN2C(=O)[C@@H](NC(=O)COCCOCCOCCOc2ccc3nc(-c4ccc(N(C)C)cc4)ccc3c2)C(C)(C)C)cc1 [Compound 30, (2S,4R)-1-((S)-2-tert-butyl-14-(2-(4-(dimethylamino)phenyl)quinolin-6-yloxy)-4-oxo-6,9,12-trioxa-3-azatetradecane)-4-hydroxy-N—((S)-1-(4-(4-methylthiazol-5-yl)phenyl)ethyl)pyrrolidine-2-carboxamide] | C (>80% tau protein remaining after 72 hours of incubation with the test compound)
O=C1CCC(N2C(=O)c3cccc(NCCOCCOCCOCCN4CCN(c5ccn6c(n5)nc5ccccc56)CC4)c3C2=O)C(=O)N1 (stereo not shown) [Compound 25, 4-((2-(2-(2-(2-(4-(benzo[4,5]imidazo[1,2-a]pyrimidin-2-yl)piperazin-1-yl)ethoxy)ethoxy)ethoxy)ethyl)amino)-2-(2,6-dioxopiperidin-3-yl)isoindoline-1,3-dione] | C (>80% tau protein remaining after 72 hours of incubation with the test compound)
Cc1ncoc1-c1ccc(CNC(=O)[C@@H]2C[C@@H](O)CN2C(=O)[C@@H](NC(=O)COCCOCCOCCOCCN2CCN(c3ccn4c(n3)nc3ccccc34)CC2)C(C)(C)C)cc1 [Compound 12, (2S,4R)-1-((S)-17-(4-(benzo[4,5]imidazo[1,2-a]pyrimidin-2-yl)piperazin-1-yl)-2-(tert-butyl)-4-oxo-6,9,12,15-tetraoxa-3-azaheptadecanoyl)-4-hydroxy-N-(4-(4-methyloxazol-5-yl)benzyl)pyrrolidine-2-carboxamide] | C (>80% tau protein remaining after 72 hours of incubation with the test compound)
